# Laboratory results from PubChem BioAssay (NCI).
# “And” between values parts separate entries of the source, which are not always exact repeats. Identical values can stand only once.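 Values below derive from 48-hour exposures of cells grown in 96-well plates, with endpoints linearly interpolated between the two concentrations bracketing the appropriate inhibition level. GI50 is the concentration that inhibits growth by half. TGI denotes the concentration required for complete inhibition of growth.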
# Experiments:
# Assay in all cases: NCI tumour cell line growth inhibition, 48 h
# [1] = system: DMS 114 small cell lung
# [2] = system: DLD-1 colon
# [3] = system: LXFL 529 NSCLC
# [4] = system: XF 498 CNS
# [5] = system: RXF-631 renal
# [6] = system: DMS 273 small cell lung
# [7] = system: MDA-N
# [8] = system: MCF7 breast
# [9] = system: SN12K1 renal
# [10] = system: P388 leukemia
# [11] = system: BT-549 breast
# [12] = system: P388/ADR leukemia
SMILES,TGI [1],TGI [2],TGI [3],TGI [4] [µM],TGI [5],TGI [6] [µM],also measured
COc1cc2ccn3c4cc(OC)c(OC)cc4cc3c2cc1OC,> 100 µM,> 100 µM,> 100 µM,> 100,–,–,–
S=C(Nc1ccccc1)Nc1[nH]c(=S)sc1-c1nc2ccccc2[nH]1,–,> 100 µM,> 100 µM,–,> 100 µM,> 100,–
CC1CCC(O)C(C(O)CC2CC(=O)N(C)C(=O)C2)C1 (centres undefined),> 100 µM,> 100 µM,> 100 µM,> 100,> 100 µM,> 100,–
CC1OC(=O)N(CCCC=C2SCCCS2)C1=O (centres undefined),> 100 µM,–,> 100 µM,> 100,–,> 100,–
CC(C)OP(=O)(CP(=O)(OC(C)C)OC(C)C)OC(C)C.[CH3][Sn]([Br])([Br])[Br],> 100 µM,> 100 µM,–,–,> 100 µM,> 100,GI50 [5]: > 100 µM; GI50 [1]: > 100 µM; GI50 [6]: > 100 µM; GI50 [2]: > 100 µM
O=C(O)c1cc(Cl)cc(NC(=O)C(Cl)Cl)c1Cl,> 100 µM,> 100 µM,> 100 µM,> 100,> 100 µM,> 100,–
C/C(=N\NS(=O)(=O)c1ccc(C)cc1)c1ccc[n+]([O-])n1,> 100 µM,> 100 µM,> 100 µM,> 100,–,> 100,–
CC1=C(C#N)C(N)=C2C(C)=C(C#N)C(N)=C12,> 100 µM,> 100 µM,> 100 µM,> 100,–,> 100,–
Cc1nnc2n1N=C(CC(=O)c1ccc(O)cc1O)CN2N,40 µM,> 100 µM,> 100 µM,–,> 100 µM,> 100,–
Cc1cc(N(CCC#N)S(=O)(=O)c2ccccc2)ccc1C=O,> 100 µM,> 100 µM,> 100 µM,–,> 100 µM,> 100,–
COc1ccc([Se]c2ccc(OC)cc2OC)c(OC)c1,13 µM,> 100 µM,> 100 µM,> 100,> 100 µM,17.6,–
Cc1ccc(NC(=O)CCC(=O)C2CC(=O)CC/C2=N\NC(=O)c2cc3ccccc3cc2O)cc1C (centres undefined),51.6 µM,> 100 µM,> 100 µM,99,> 100 µM,43.1,–
CC(=O)NC1C(OCc2ccccc2)OC(COC(=O)CCCCCCCCCCNC(=O)c2cccc3c(=O)c4ccccc4[nH]c23)C(O)C1OC(C)C(=O)NC(C)C(=O)NC(CCC(N)=O)C(N)=O (centres undefined),> 100 µM,> 100 µM,> 100 µM,> 100,43.8 µM,> 100,–
CC(C)c1ccc(/C=C(\NC(=O)c2ccccc2)c2nc3ccccc3[nH]2)cc1,92.8 µM,> 100 µM,> 100 µM,> 100,> 100 µM,> 100,–
COC(=O)C(CC=O)C(=O)C(=O)Nc1cccc(C(F)(F)F)c1 (centres undefined),> 100 µM,> 100 µM,> 100 µM,> 100,> 100 µM,–,–
COc1ccc(S(=O)(=O)N/N=C/C(=O)O)cc1,1230 µM,> 1250 µM,–,> 1080,–,> 1200,TGI [7]: > 1200 µM; TGI [8]: > 1210 µM; TGI [9]: > 1250 µM; TGI [10]: 787 µM; TGI [11]: 704 µM; TGI [12]: 721 µM
Clc1ccc2c(Cl)ncnc2c1,–,> 100 µM,–,> 100,–,> 100,–
N#Cc1c2c(c(N=[N+]=[N-])n3c1nc1ccccc13)CCCC2,4.37 µM,2.94 µM,–,3.13,–,6.52,–
COC(=O)/C(=N\NC(=O)c1ccccc1O)C(C#N)c1ccc(Cl)cc1 (centres undefined),> 100 µM,> 100 µM,> 100 µM,–,> 100 µM,–,–
CN1CC2(CCCCC2)C(O)C12C=CCCC2 (centres undefined),> 100 µM,> 100 µM,> 100 µM,> 100,–,> 100,–
O=C1OCC(C(=O)c2cccc(O)c2)C1=O (centres undefined),> 100 µM,> 100 µM,> 100 µM,–,> 100 µM,> 100,–
O=C1c2c(O)cccc2C(C(=O)CCCCC(=O)C2c3cccc(O)c3C(=O)c3c(O)cccc32)c2cccc(O)c21,1.48 µM and 1.83 µM,4.52 µM and 9.27 µM,1.01 µM and 1.95 µM,1.18,3.61 µM and 2.81 µM,4.51,GI50 [5]: 1.36 µM; TGI [7]: 3.77 µM; GI50 [1]: 1.01 µM; TGI [8]: 6.18 µM; GI50 [2]: 1.68 µM; TGI [11]: 1.96 µM; GI50 [3]: 1.04 µM
CC1=CC2=C(C)C3(CC3)[C@@](C)(O)C(=O)C2=C1,0.313 µM,> 0.935 µM,0.783 µM,0.341,–,0.696,–
CCOC(=O)c1cnc2[nH]c(=O)c3ccccc3n2c1=O,–,> 100 µM,> 100 µM,> 100,> 100 µM,> 100,–
O=c1c2ccccc2nc(-c2ccccc2)n1NCC1(O)OCC(O)C(O)C1O (centres undefined),> 100 µM,> 100 µM,> 100 µM,–,–,> 100,–
Cn1c(=O)c2c3oc(=O)cc(O)c3c(=O)n3c4ccccc4n(c1=O)c23,–,> 100 µM,> 100 µM,68,> 100 µM,> 100,–
